Assay results taken from patent publication US20250144253A1, “3-((3-([1,1'-BIPHENYL]-3-YLMETHOXY)PHENOXY)METHYL)BENZONITRILE DERIVATIVES AND THE USE THEREOF” (HELMHOLTZ-ZENTRUM DRESDEN-ROSSENDORF E.V., priority 2021, published 2025).
Values after ≈ are worked out from the molar mass of the structure shown.

Columns and labels:
[1] = Distribution coefficient log D at pH 7.4; format: physicochemical; settings: pH 7.4, n = 3
From the text: In general, the more negative the values of log D the better the water solubility.

PD-L1 = target: T1, PD-L1 (Homo sapiens, UniProt Q9NZQ7); assay: Saturation binding assay of Cu-64 labelled radioligands on PC3 hPSCA PD-L1 overexpressing cell line; settings: PC3 hPSCA PD-L1 cells, n = 3; for Kd: 4° C., 90 min
T1 construct: expressed in transfected cells; host or cells: PC3 hPSCA PD-L1 overexpressing cell line
Description: Experiments were performed on a PC3 hPSCA PD-L1 overexpressing cell line in triplicates and three experiments were performed per compound, resulting in a 3×3 data set per compound (see FIGS. 1 to 3). The saturated, upper curve represents the total binding of the compound whereas the lower, linear curve represents the unspecific binding. The specific binding is represented as the difference between total and unspecific binding.
In the following the procedure for saturation binding assay is explained: The respective Cu-64 labeled compound is prepared freshly for each experiment. The cells with PD-L1 expression were prepared in 48-well plates. Three rows in the plates were designated for determination of total binding and one row for determination of the unspecific binding. For the latter, the cells are pretreated for 15 min with a 300 fold excess of a literature known PD-L1 inhibitor with high binding to PD-L1. […] Protein determination takes place at the next day and provides the Bmax value (total density of PD-L1 receptors on cell surface). Plotting and graphical interpretation provides curves and Kd-values from graph fitting.

[2] = Water solubility by adding water in 1 μl steps to 1 mg compound; format: physicochemical; settings: thermodynamic from solid
Description: The water solubility of compounds 85-90 was determined by weighing 1 mg of the cold compound in an Eppendorf-tube and adding water in 1 μl steps. The addition was performed until everything was dissolved. The value in mg/μl was converted to […].

PD-L1 tumor [3] = assay: PET imaging in PD-L1 overexpressing mouse xenograft model; format: in vivo; settings: 5 hrs p.i. (second image)
PD-L1 tumor [4] = assay: as above; format: in vivo
Description: Compound 119 was tested in a PD-L1 overexpressing mouse xenograft model. PET images were recorded 2 h, 15 h and 24 h post injection (see FIG. 4). The experiments were performed with compound 119 in duplicates (two mice for each timepoint). About 10 MBq of radiolabelled compound were injected intravenously in the tail vain of an alive mouse. At 2 hrs p.i. the first image was recorded. […] At 5 hrs p.i. the second image was recorded. High uptake in liver; high uptake in colon and intestine and increased uptake in PD-L1 tumor have been observed. At 24 hrs p.i. the third image was recorded. Moderate uptake in liver, low uptake in intestine and moderate uptake in the PD-L1 positive tumor has been observed.

T1 sequence (Q9NZQ7 19-290): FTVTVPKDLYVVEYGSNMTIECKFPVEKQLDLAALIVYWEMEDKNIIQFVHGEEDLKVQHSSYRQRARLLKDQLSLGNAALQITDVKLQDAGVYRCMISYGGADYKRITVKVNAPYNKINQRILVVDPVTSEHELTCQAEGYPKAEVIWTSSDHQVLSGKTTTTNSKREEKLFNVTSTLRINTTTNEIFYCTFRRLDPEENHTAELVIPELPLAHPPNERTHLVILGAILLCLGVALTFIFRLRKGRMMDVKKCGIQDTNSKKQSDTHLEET

SMILES | Log D7.4 [1] | Kd (PD-L1) | Bmax (receptor density) (PD-L1) | solubility [2] | further results
Cc1c(COc2cc(OCc3cncc(C#N)c3)c(CN(C)CC(=O)NCC(S(=O)(=O)O)S(=O)(=O)O)cc2Cl)cccc1-c1cccc(OCc2cn(CCCN3CCN(C(=O)CN4CCN(CC(=O)O)CCN(CC(=O)O)CCN(CC(=O)O)CC4)CC3)nn2)c1C [Compound 121] | −2.99 ± 0.02 | 0.128 ± 0.0132 µM | 20.9 ± 2.17 pmol/mg |  | 
CN(CC(=O)NCC(S(=O)(=O)O)S(=O)(=O)O)Cc1cc(Cl)c(OCc2cccc(-c3cccc(OCc4cn([C@@H]5O[C@H](CO)[C@@H](O)[C@H](O)[C@H]5F)nn4)c3)c2Br)cc1OCc1cncc(S(C)(=O)=O)c1 [Compound 86, 2-(2-((4-((2-Bromo-3′-((1-((2R,3R,4S,5S,6R)-3-fluoro-4,5-dihydroxy-6-(hydroxymethyl)tetrahydro-2H-pyran-2-yl)-1H-1,2,3-triazol-4-yl)methoxy)-[1,1′-biphenyl]-3-yl)methoxy)-5-chloro-2-((5-(methylsulfonyl)pyridin-3-yl)methoxy)benzyl)(methyl)amino)acetamido)ethane-1,1-disulfonic acid] |  |  |  | 110 mg/mL (≈ 99.2 mM) | 
CN(CC(=O)NCC(S(=O)(=O)O)S(=O)(=O)O)Cc1cc(Cl)c(OCc2cccc(-c3cccc(OCc4cn(CCCC5CCN(C(=O)CN6CCN(CC(=O)O)CCN(CC(=O)O)CCN(CC(=O)O)CC6)CC5)nn4)c3)c2Br)cc1OCc1cncc(S(C)(=O)=O)c1 [Compound 115] | −2.73 ± 0.04 | 0.585 ± 0.0396 µM | 11.7 ± 0.54 pmol/mg |  | 
Cc1c(COc2cc(OCc3cncc(S(C)(=O)=O)c3)c(CN(C)CC(=O)NCC(S(=O)(=O)O)S(=O)(=O)O)cc2Cl)cccc1-c1cccc(OCc2cn([C@@H]3O[C@H](CF)[C@@H](O)[C@H](O)[C@H]3O)nn2)c1C [Compound 90, 2-(2-((5-Chloro-4-((3′-((1-((2R,3R,4S,5S,6S)-6-(fluoromethyl)-3,4,5-trihydroxytetrahydro-2H-pyran-2-yl)-1H-1,2,3-triazol-4-yl)methoxy)-2,2′-dimethyl-[1,1′-biphenyl]-3-yl)methoxy)-2-((5-(methylsulfonyl)pyridin-3-yl)methoxy)benzyl)(methyl)amino)acetamido)ethane-1,1-disulfonic acid] |  |  |  | 115 mg/mL (≈ 109 mM) | 
Cc1c(COc2cc(OCc3cncc(S(C)(=O)=O)c3)c(CN(C)CC(=O)NCC(S(=O)(=O)O)S(=O)(=O)O)cc2Cl)cccc1-c1cccc(OCc2cn(CCCC3CCN(C(=O)CN4CCN(CC(=O)O)CCN(CC(=O)O)CCN(CC(=O)O)CC4)CC3)nn2)c1C [Compound 118] | −2.75 ± 0.04 | 0.123 ± 0.0117 µM | 13.5 ± 0.98 pmol/mg |  | 
CN(CC(=O)NCC(S(=O)(=O)O)S(=O)(=O)O)Cc1cc(Cl)c(OCc2cccc(-c3cccc(OCc4cn(CCOCCOCCN5CCN(C(=O)CN6CCN(CC(=O)O)CCN(CC(=O)O)CCN(CC(=O)O)CC6)CC5)nn4)c3)c2Br)cc1OCc1cncc(S(C)(=O)=O)c1 [Compound 117] | −3.47 ± 0.10 | 0.357 ± 0.0665 µM | 5.85 ± 1.14 (n = 6) pmol/mg |  | 
Cc1c(COc2cc(OCc3cncc(C#N)c3)c(CN(C)CC(=O)NCC(S(=O)(=O)O)S(=O)(=O)O)cc2Br)cccc1-c1cccc(OCc2cn(CCCN3CCN(C(=O)CN4CCN(CC(=O)O)CCN(CC(=O)O)CCN(CC(=O)O)CC4)CC3)nn2)c1C [Compound 122] | −3.48 ± 0.03 | 0.135 ± 0.00234 µM | 8.28 ± 0.13 pmol/mg |  | 
Cc1c(COc2cc(OCc3cncc(S(C)(=O)=O)c3)c(CN(C)CC(=O)NCC(S(=O)(=O)O)S(=O)(=O)O)cc2Cl)cccc1-c1cccc(OCc2cn([C@@H]3O[C@H](CO)[C@@H](O)[C@H](O)[C@H]3F)nn2)c1C [Compound 89, 2-(2-((5-Chloro-4-((3′-((1-((2R,3R,4S,5S,6R)-3-fluoro-4,5-dihydroxy-6-(hydroxymethyl)tetrahydro-2H-pyran-2-yl)-1H-1,2,3-triazol-4-yl)methoxy)-2,2′-dimethyl-[1,1′-biphenyl]-3-yl)methoxy)-2-((5-(methylsulfonyl)pyridin-3-yl)methoxy)benzyl)(methyl)amino)acetamido)ethane-1,1-disulfonic acid] |  |  |  | 120 mg/mL (≈ 113 mM) | 
Cc1c(COc2cc(OCc3cncc(S(C)(=O)=O)c3)c(CN[C@@H](CS(=O)(=O)O)C(=O)NCCS(=O)(=O)O)cc2Cl)cccc1-c1cccc(OCc2cn(CCCN3CCN(C(=O)[C@H](CS(=O)(=O)O)NC(=O)CC[C@H](C(=O)O)N4CCN(CC(=O)O)CCN(CC(=O)O)CC4)CC3)nn2)c1C [Compound 222] | −3.80 ± 0.02 |  |  |  | 
Cc1c(COc2cc(OCc3cncc(S(C)(=O)=O)c3)c(CN(C)CC(=O)NCC(S(=O)(=O)O)S(=O)(=O)O)cc2Cl)cccc1-c1cccc(OCc2cn(CCCN3CCN(C(=O)CN4CCN(CC(=O)O)CCN(CC(=O)O)CCN(CC(=O)O)CC4)CC3)nn2)c1C [Compound 119] | −3.14 ± 0.02 | 0.0599 ± 0.00463 µM | 5.43 ± 0.46 pmol/mg |  | uptake in PD-L1 tumor (PD-L1 tumor [3]): increased; uptake in colon and intestine (PD-L1 tumor [3]): high; uptake in liver (PD-L1 tumor [3]): High; circulation in the blood pool (PD-L1 tumor [4]; 2 hrs p.i.): did still circulate in the blood pool; uptake in PD-L1 tumor (PD-L1 tumor [4]; 2 hrs p.i.): low; uptake in bladder and intestines (PD-L1 tumor [4]; 2 hrs p.i.): high; uptake in liver (PD-L1 tumor [4]; 2 hrs p.i., about 10 MBq i.v.): Moderate; uptake in intestine (PD-L1 tumor [4]; 24 hrs p.i.): low; uptake in liver (PD-L1 tumor [4]; 24 hrs p.i.): Moderate; uptake in the PD-L1 positive tumor (PD-L1 tumor [4]; 24 hrs p.i.): moderate
Cc1c(COc2cc(OCc3cncc(S(C)(=O)=O)c3)c(CN(C)CC(=O)NCC(S(=O)(=O)O)S(=O)(=O)O)cc2Cl)cccc1-c1cccc(OCc2cn(CCOCCOCCN3CCN(C(=O)CN4CCN(CC(=O)O)CCN(CC(=O)O)CCN(CC(=O)O)CC4)CC3)nn2)c1C [Compound 120] | −3.50 ± 0.01 | 0.0713 ± 0.0101 µM | 7.04 ± 0.42 pmol/mg |  | 
CN(CC(=O)NCC(S(=O)(=O)O)S(=O)(=O)O)Cc1cc(Cl)c(OCc2cccc(-c3cccc(OCc4cn(CCCF)nn4)c3)c2Br)cc1OCc1cncc(S(C)(=O)=O)c1 [Compound 85, 2-(2-((4-((2-Bromo-3′-((1-(3-fluoropropyl)-1H-1,2,3-triazol-4-yl)methoxy)-[1,1′-biphenyl]-3-yl)methoxy)-5-chloro-2-((5-(methylsulfonyl)pyridin-3-yl)methoxy)benzyl)(methyl)amino)acetamido)ethane-1,1-disulfonic acid] |  |  |  | 80 mg/mL (≈ 79.7 mM) | 
Cc1c(COc2cc(OCc3cncc(C#N)c3)c(CN(C)CC(=O)NCC(S(=O)(=O)O)S(=O)(=O)O)cc2I)cccc1-c1cccc(OCc2cn(CCCN3CCN(C(=O)CN4CCN(CC(=O)O)CCN(CC(=O)O)CCN(CC(=O)O)CC4)CC3)nn2)c1C [Compound 123] | −2.89 ± 0.02 | 0.3 ± 0.0206 µM | 49.6 ± 1.27 pmol/mg |  | 
CN(CC(=O)NCC(S(=O)(=O)O)S(=O)(=O)O)Cc1cc(Cl)c(OCc2cccc(-c3cccc(OCc4cn([C@@H]5O[C@H](CF)[C@@H](O)[C@H](O)[C@H]5O)nn4)c3)c2Br)cc1OCc1cncc(S(C)(=O)=O)c1 [Compound 87, 2-(2-((4-((2-Bromo-3′-((1-((2R,3R,4S,5S,6S)-6-(fluoromethyl)-3,4,5-trihydroxytetrahydro-2H-pyran-2-yl)-1H-1,2,3-triazol-4-yl)methoxy)-[1,1′-biphenyl]-3-yl)methoxy)-5-chloro-2-((5-(methylsulfonyl)pyridin-3-yl)methoxy)benzyl)(methyl)amino)acetamido)ethane-1,1-disulfonic acid] |  |  |  | 115 mg/mL (≈ 104 mM) | 
Cc1c(COc2cc(OCc3cncc(S(C)(=O)=O)c3)c(CN(C)CC(=O)NCC(S(=O)(=O)O)S(=O)(=O)O)cc2Cl)cccc1-c1cccc(OCc2cn(CCCF)nn2)c1C [Compound 88, 2-(2-((5-Chloro-4-((3′-((1-(3-fluoropropyl)-1H-1,2,3-triazol-4-yl)methoxy)-2,2′-dimethyl-[1,1′-biphenyl]-3-yl)methoxy)-2-((5-(methylsulfonyl)pyridin-3-yl)methoxy)benzyl)(methyl)amino)acetamido)ethane-1,1-disulfonic acid] |  |  |  | 85 mg/mL (≈ 89.1 mM) | 
